Here are results for 29 compounds from US10053463B2 (Janssen Pharmaceutica NV, priority 2013, dated 2018).

The structures appear in SMILES notation.

One assay deals with P2X7 (Homo sapiens (Human), UniProt Q99572). Kind of assay: P2X7 antagonism in human peripheral blood mononuclear cells (PBMCs), IL-1β release. In kind it is cell-based. Conditions: P2X7; Table 3 (additional runs); 10 μM compound; read-out: PBMC 10 μM (% control). In outline: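 Ficoll-isolated human PBMCs primed with LPS (30 ng/ml) for 1 h, treated with compound for 30 min, then stimulated with 0.5 mM Bz-ATP for 1.5 h. Supernatant IL-1β measured by ELISA as % of LPS+Bz-ATP minus LPS-only release; IC50 from concentration–response of triplicate means.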
P2X7, sequence (Q99572 whole entry): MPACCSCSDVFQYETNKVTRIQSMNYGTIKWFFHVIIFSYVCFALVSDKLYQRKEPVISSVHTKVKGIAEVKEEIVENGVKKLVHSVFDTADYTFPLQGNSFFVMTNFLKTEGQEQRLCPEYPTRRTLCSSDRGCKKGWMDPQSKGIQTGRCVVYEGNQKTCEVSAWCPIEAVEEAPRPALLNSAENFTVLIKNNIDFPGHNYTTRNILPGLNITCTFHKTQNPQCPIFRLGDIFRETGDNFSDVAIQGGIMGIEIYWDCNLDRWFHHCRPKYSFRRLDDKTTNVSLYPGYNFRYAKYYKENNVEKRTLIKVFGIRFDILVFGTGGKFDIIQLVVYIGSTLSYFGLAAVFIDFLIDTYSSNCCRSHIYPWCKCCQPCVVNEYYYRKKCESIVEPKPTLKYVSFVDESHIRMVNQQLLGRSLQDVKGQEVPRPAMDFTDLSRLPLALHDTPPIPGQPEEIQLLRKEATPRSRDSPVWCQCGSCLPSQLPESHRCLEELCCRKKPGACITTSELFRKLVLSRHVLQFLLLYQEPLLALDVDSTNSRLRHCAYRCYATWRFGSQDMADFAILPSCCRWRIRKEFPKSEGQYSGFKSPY
Regarding `C[C@H]1Cn2c(nnc2-c2ncco2)C(=O)N1Cc1cccc(C(F)(F)F)c1Cl` [Example 20, (6S)-7-[2-Chloro-3-(trifluoromethyl)benzyl]-6-methyl-3-(1,3-oxazol-2-yl)-6,7-dihydro[1,2,4]triazolo[4,3-a]pyrazin-8(5H)-one], the remaining activity at 10 µM was determined as 4.7%.

`C[C@H]1Cn2c(nnc2-c2cnccn2)C(=O)N1Cc1cc([N+](=O)[O-])ccc1Cl` [Example 90, (6S)-7-(2-Chloro-5-nitrobenzyl)-6-methyl-3-pyrazin-2-yl-6,7-dihydro[1,2,4]triazolo[4,3-a]pyrazin-8(5H)-one]: the remaining activity at 10 µM was 24.4%.

Regarding `C[C@H]1Cn2c(nnc2-c2ccon2)C(=O)N1Cc1cccc(C(F)(F)F)c1Cl` [Example 41, (6S)-7-[2-Chloro-3-(trifluoromethyl)benzyl]-3-isoxazol-3-yl-6-methyl-6,7-dihydro[1,2,4]triazolo[4,3-a]pyrazin-8(5H)-one], the remaining activity at 10 µM stood at 35%.

With `C[C@H]1Cn2c(-c3cccnc3)nnc2-c2nnc(-c3cccc(C(F)(F)F)c3Cl)n21` [Example 122, (S)-3-[2-chloro-3-(trifluoromethyl)phenyl]-5-methyl-8-(pyridin-3-yl)-5,6-dihydrobis[1,2,4]triazolo[4,3-a:3′,4′-c]pyrazine], the remaining activity at 10 µM stood at 9.5%.

In the case of `C[C@H]1Cn2cnnc2-c2nnc(-c3cccc(C(F)(F)F)c3Cl)n21` [Example 107, (5S)-3-[2-Chloro-3-(trifluoromethyl)phenyl]-5-methyl-5,6-dihydrobis[1,2,4]triazolo[4,3-a:3′,4′-c]pyrazine], the remaining activity at 10 µM is 40.2%.

Take `CC[C@H]1Cn2c(nnc2-c2ncccn2)C(=O)N1Cc1cccc(C(F)(F)F)c1Cl` [Example 72, (6S)-7-[2-Chloro-3-(trifluoromethyl)benzyl]-6-ethyl-3-pyrimidin-2-yl-6,7-dihydro[1,2,4]triazolo[4,3-a]pyrazin-8(5H)-one]: the remaining activity at 10 µM was 1.9%.

Turning to `Cc1cncc(-c2nnc3n2C[C@H](C)n2c(-c4cccc(C(F)(F)F)c4Cl)nnc2-3)c1` [Example 123, (S)-3-(2-chloro-3-(trifluoromethyl)phenyl)-5-methyl-8-(5-methylpyridin-3-yl)-5,6-dihydrobis([1,2,4]triazolo)[4,3-a:3′,4′-c]pyrazine], the remaining activity at 10 µM turned out to be 2.4%.

On to `CC(c1ccccc1)N1C(=O)c2nnc(-c3cnccn3)n2C[C@@H]1C` (stereo partly drawn) [Example 92, (6S)-6-Methyl-7-(1-phenylethyl)-3-pyrazin-2-yl-6,7-dihydro[1,2,4]triazolo[4,3-a]pyrazin-8(5H)-one], for which the remaining activity at 10 µM was -1%.

For `C[C@H]1Cn2c(-c3cnn(C)c3)nnc2-c2nnc(-c3cccc(C(F)(F)F)c3Cl)n21` [Example 114, (5S)-3-[2-Chloro-3-(trifluoromethyl)phenyl]-5-methyl-8-(1-methyl-1H-pyrazol-4-yl)-5,6-dihydrobis[1,2,4]triazolo[4,3-a:3′,4′-c]pyrazine], the remaining activity at 10 µM stood at 4.4%.

`C[C@H]1Cn2c(nnc2-c2cccnc2)C(=O)N1Cc1cccc(C(F)(F)F)c1Cl` [Example 29, (6S)-7-[2-Chloro-3-(trifluoromethyl)benzyl]-6-methyl-3-pyridin-3-yl-6,7-dihydro[1,2,4]triazolo[4,3-a]pyrazin-8(5H)-one]: the remaining activity at 10 µM is -3.4%.

With `CC1Cn2c(nnc2-c2cnccn2)C(=O)N1Cc1cccc(Cl)c1Cl` (racemic) [Example 11, (±)-7-(2,3-Dichlorobenzyl)-6-methyl-3-pyrazin-2-yl-6,7-dihydro[1,2,4]triazolo[4,3-a]pyrazin-8(5H)-one], the remaining activity at 10 µM is -0.4%.

`C[C@H]1Cn2c(nnc2-c2cocn2)C(=O)N1Cc1cccc(C(F)(F)F)c1Cl` [Example 21, (6S)-7-[2-Chloro-3-(trifluoromethyl)benzyl]-6-methyl-3-(1,3-oxazol-4-yl)-6,7-dihydro[1,2,4]triazolo[4,3-a]pyrazin-8(5H)-one]: the remaining activity at 10 µM was -3.4%.

On to `Cc1ncsc1-c1nnc2n1C[C@H](C)N(Cc1cccc(C(F)(F)F)c1Cl)C2=O` [Example 40, (6S)-7-[2-Chloro-3-(trifluoromethyl)benzyl]-6-methyl-3-(4-methyl-1,3-thiazol-5-yl)-6,7-dihydro[1,2,4]triazolo[4,3-a]pyrazin-8(5H)-one], for which the remaining activity at 10 µM was 22.3%.

Regarding `C[C@H]1Cn2c(nnc2-c2cnccn2)C(=O)N1Cc1cc2c(cc1Cl)OCO2` [Example 84, (6S)-7-[(6-Chloro-1,3-benzodioxol-5-yl)methyl]-6-methyl-3-pyrazin-2-yl-6,7-dihydro[1,2,4]triazolo[4,3-a]pyrazin-8(5H)-one], the remaining activity at 10 µM stood at 25.9%.

Turning to `CC[C@H]1Cn2c(nnc2-c2cc[nH]n2)C(=O)N1Cc1cccc(C(F)(F)F)c1Cl` [Example 74, (6S)-7-[2-Chloro-3-(trifluoromethyl)benzyl]-6-ethyl-3-(1H-pyrazol-3-yl)-6,7-dihydro[1,2,4]triazolo[4,3-a]pyrazin-8(5H)-one], the remaining activity at 10 µM is 0.3%.

For `O=C1c2nnc(-c3cnccn3)n2CCN1Cc1c(Cl)cccc1Cl` [Example 5, 7-(2,6-Dichlorobenzyl)-3-pyrazin-2-yl-6,7-dihydro[1,2,4]triazolo[4,3-a]pyrazin-8(5H)-one], the remaining activity at 10 µM came to 8.8%.

Regarding `C[C@H]1Cn2c(nnc2-c2ccn(C)n2)C(=O)N1Cc1cccc(C(F)(F)F)c1Cl` [Example 23, (6S)-7-[2-Chloro-3-(trifluoromethyl)benzyl]-6-methyl-3-(1-methyl-1H-pyrazol-3-yl)-6,7-dihydro[1,2,4]triazolo[4,3-a]pyrazin-8(5H)-one], the remaining activity at 10 µM was -7%.

Consider `C[C@H]1Cn2c(nnc2C2CCN(C(=O)OC(C)(C)C)C2)C(=O)N1Cc1cccc(C(F)(F)F)c1Cl` (stereo partly drawn) [Example 58, (6S)-tert-Butyl3-{7-[2-chloro-3-(trifluoromethyl)benzyl]-6-methyl-8-oxo-5,6,7,8-tetrahydro[1,2,4]triazolo[4,3-a]pyrazin-3-yl}pyrrolidine-1-carboxylate], for which the remaining activity at 10 µM was determined as 24.6%.

With `C[C@H]1Cn2c(nnc2C2CC2)C(=O)N1Cc1cccc(C(F)(F)F)c1Cl` [Example 50, (6S)-7-[2-Chloro-3-(trifluoromethyl)benzyl]-3-cyclopropyl-6-methyl-6,7-dihydro[1,2,4]triazolo[4,3-a]pyrazin-8(5H)-one], the remaining activity at 10 µM stood at 8.7%.

For `CC1Cn2c(nnc2-c2cnccn2)C(=O)N1Cc1cccc(C(F)(F)F)c1Cl` (racemic) [Example 14, (±)-7-[2-Chloro-3-(trifluoromethyl)benzyl]-6-methyl-3-pyrazin-2-yl-6,7-dihydro[1,2,4]triazolo[4,3-a]pyrazin-8(5H)-one], the remaining activity at 10 µM came to 2.5%.

Turning to `O=C1c2nnc(-c3ccc(F)cn3)n2CC(C2CC2)N1Cc1cccc(C(F)(F)F)c1Cl` (racemic) [Example 69, (±)-7-[2-Chloro-3-(trifluoromethyl)benzyl]-6-cyclopropyl-3-(5-fluoropyridin-2-yl)-6,7-dihydro[1,2,4]triazolo[4,3-a]pyrazin-8(5H)-one], the remaining activity at 10 µM worked out at 20.8%.

Regarding `C[C@H]1Cn2c(nnc2-c2ncc(Br)cn2)C(=O)N1Cc1cccc(C(F)(F)F)c1Cl` [Example 42, (6S)-3-(5-Bromopyrimidin-2-yl)-7-[2-chloro-3-(trifluoromethyl)benzyl]-6-methyl-6,7-dihydro[1,2,4]triazolo[4,3-a]pyrazin-8(5H)-one], the remaining activity at 10 µM was found to be 37.4%.

As for `C[C@H]1Cn2c(nnc2-c2cnccn2)C(=O)N1Cc1ccc(S(C)(=O)=O)cc1Cl` [Example 81, (6S)-7-[2-Chloro-4-(methylsulfonyl)benzyl]-6-methyl-3-pyrazin-2-yl-6,7-dihydro[1,2,4]triazolo[4,3-a]pyrazin-8(5H)-one], the remaining activity at 10 µM amounted to 170%.

Take `C[C@H]1Cn2c(nnc2-c2cnccn2)C(=O)N1Cc1ccccc1Cl` [Example 80, (6S)-7-(2-Chlorobenzyl)-6-methyl-3-pyrazin-2-yl-6,7-dihydro[1,2,4]triazolo[4,3-a]pyrazin-8(5H)-one]: the remaining activity at 10 µM is 8.4%.

With `C[C@H]1Cn2c(nnc2-c2ccncc2)C(=O)N1Cc1cccc(C(F)(F)F)c1Cl` [Example 47, (6S)-7-[2-Chloro-3-(trifluoromethyl)benzyl]-6-methyl-3-pyridin-4-yl-6,7-dihydro[1,2,4]triazolo[4,3-a]pyrazin-8(5H)-one], the remaining activity at 10 µM was -1.3%.

Take `Cc1ncccc1-c1nnc2n1C[C@H](C)N(Cc1cccc(C(F)(F)F)c1Cl)C2=O` [Example 48, (6S)-7-[2-Chloro-3-(trifluoromethyl)benzyl]-6-methyl-3-(2-methylpyridin-3-yl)-6,7-dihydro[1,2,4]triazolo[4,3-a]pyrazin-8(5H)-one]: the remaining activity at 10 µM is 0%.

As to `C[C@H]1Cn2c(-c3cocn3)nnc2-c2nnc(-c3cccc(C(F)(F)F)c3Cl)n21` [Example 104, (5S)-3-[2-Chloro-3-(trifluoromethyl)phenyl]-5-methyl-8-(1,3-oxazol-4-yl)-5,6-dihydrobis[1,2,4]triazolo[4,3-a:3′,4′-c]pyrazine], the remaining activity at 10 µM is 4.3%.

As for `CC[C@H]1Cn2c(nnc2-c2cnccn2)C(=O)N1Cc1cccc(C(F)(F)F)c1Cl` [Example 71, (6S)-7-[2-Chloro-3-(trifluoromethyl)benzyl]-6-ethyl-3-pyrazin-2-yl-6,7-dihydro[1,2,4]triazolo[4,3-a]pyrazin-8(5H)-one], the remaining activity at 10 µM stood at 1.2%.

Consider `C[C@H]1Cn2c(nnc2-c2cnco2)C(=O)N1Cc1cccc(C(F)(F)F)c1Cl` [Example 22, (6S)-7-[2-Chloro-3-(trifluoromethyl)benzyl]-6-methyl-3-(1,3-oxazol-5-yl)-6,7-dihydro[1,2,4]triazolo[4,3-a]pyrazin-8(5H)-one], for which the remaining activity at 10 µM is -3.9%.

Still in this assay, the particulars now being: Table 2; 10 μM compound; IL-1β release, LPS + 0.5 mM Bz-ATP.
With `CC[C@H]1Cn2c(nnc2-c2cnccn2)C(=O)N1Cc1cccc(C(F)(F)F)c1Cl` [Example 71, (6S)-7-[2-Chloro-3-(trifluoromethyl)benzyl]-6-ethyl-3-pyrazin-2-yl-6,7-dihydro[1,2,4]triazolo[4,3-a]pyrazin-8(5H)-one], the “PBMC 10 μM (% control)” value turned out to be 1.2 % control.
